This note sets out measurements from the OligoGym collection.

“And” between values parts separate entries of the source, which are not always exact repeats. Equal entries are not always repeated. After the bases stand the sugars from the 5' end (letter, count) and the backbone: PS all phosphorothioate, else s phosphorothioate and o phosphodiester by linkage. Methylation of C is not given here. k = constrained ethyl (cEt); d = 2'-deoxy (DNA)

This data set addresses MALAT1. The note with it: ASO, A431, 0.005 µM.

AGGCAGTTATATTAGG (sugars k3 d10 k3, PS): the target mRNA inhibition was determined as 26%.

Regarding GAATACCATCTGAAAG (sugars k3 d10 k3, PS), the target mRNA inhibition was found to be 16%.

Turning to GGACATCTCTTCCACA (sugars k3 d10 k3, PS), the target mRNA inhibition was determined as 24%.

As to ATAATAGAGCTACTTA (sugars k3 d10 k3, PS), the target mRNA inhibition was determined as 19%.

With CCGCCTGAGCCCCGGG (sugars k3 d10 k3, PS), the target mRNA inhibition is -9%.

Turning to TGGCCTACTCAAGCTC (sugars k3 d10 k3, PS), the target mRNA inhibition was -8%.

Turning to AGTTACTTGCCAACTT (sugars k3 d10 k3, PS), the target mRNA inhibition worked out at 7%.

As for ATCTTAGTAACCTATT (sugars k3 d10 k3, PS), the target mRNA inhibition is 17%.

In the case of CCTTGAAACCGATTAT (sugars k3 d10 k3, PS), the target mRNA inhibition stood at 36%.

Consider AATAAGCACTTATCCC (sugars k3 d10 k3, PS), for which the target mRNA inhibition was determined as 31%.

As for GAGATTTGGGCTTTAT (sugars k3 d10 k3, PS), the target mRNA inhibition was 34% and 33%.

Take GTTAAGACCATCCCAA (sugars k3 d10 k3, PS): the target mRNA inhibition was 19%.

Turning to TAACGAAGAGATACCT (sugars k3 d10 k3, PS), the target mRNA inhibition came out at 22%.

Regarding ATGGACATCTCTTCCA (sugars k3 d10 k3, PS), the target mRNA inhibition came to 30%.

With CATTTATTTCGGCTTC (sugars k3 d10 k3, PS), the target mRNA inhibition was 66% and 90%.

CTGCCAACTAATTGCC (sugars k3 d10 k3, PS): the target mRNA inhibition is -32%.

Consider AACAGTACTGCATTTA (sugars k3 d10 k3, PS), for which the target mRNA inhibition was 36%.

As for AAGTCTCGGGCTGCAG (sugars k3 d10 k3, PS), the target mRNA inhibition was 4%.

Consider CGAACTGCTGCTTGCT (sugars k3 d10 k3, PS), for which the target mRNA inhibition stood at 40%.

With CTTCGGTTAAAAATAG (sugars k3 d10 k3, PS), the target mRNA inhibition was 4%.

As for TGGTTAGGTATGAGCT (sugars k3 d10 k3, PS), the target mRNA inhibition is 4%.

Take AGGGACAGTAGGTATA (sugars k3 d10 k3, PS): the target mRNA inhibition was 16%.

As to ACCAATCCCAACCGTA (sugars k3 d10 k3, PS), the target mRNA inhibition was determined as 18%.

In the case of TCCTAGCTTCATCAAA (sugars k3 d10 k3, PS), the target mRNA inhibition was 7%.

For TAATGCACTGGTACAC (sugars k3 d10 k3, PS), the target mRNA inhibition was -22%.

In the case of CCACGCCAACACAGTT (sugars k3 d10 k3, PS), the target mRNA inhibition was 31%.

As to ATACAAACTGCTTACA (sugars k3 d10 k3, PS), the target mRNA inhibition is -30%.

Take GCACTTTTAAAGTCTG (sugars k3 d10 k3, PS): the target mRNA inhibition was 74% and 91%.

Turning to CAAGACCAAACTGCAG (sugars k3 d10 k3, PS), the target mRNA inhibition is -28%.

As for TGTTATGTTCACCTGA (sugars k3 d10 k3, PS), the target mRNA inhibition stood at 35%.

TTTAATCATACTCCAG (sugars k3 d10 k3, PS): the target mRNA inhibition stood at 24%.

Regarding TGGAAAGCGAGTTCAA (sugars k3 d10 k3, PS), the target mRNA inhibition was -4%.

For the sequence ACGGAGAACAACTCGC (sugars k3 d10 k3, PS), the target mRNA inhibition was 1%.

Regarding TTATTTAGAGGGCCTC (sugars k3 d10 k3, PS), the target mRNA inhibition is 57% and 72%.

On to GATTAGTAGTCAAAGC (sugars k3 d10 k3, PS), for which the target mRNA inhibition was found to be 24%.

For the sequence ACACCCGGAAATCGGC (sugars k3 d10 k3, PS), the target mRNA inhibition came out at 8%.

For ACCCCTGACTTTCTGG (sugars k3 d10 k3, PS), the target mRNA inhibition stood at 18%.

Take AGCACTTATCCCTAAC (sugars k3 d10 k3, PS): the target mRNA inhibition is 40%.

Turning to TGCACTAAAGATCACT (sugars k3 d10 k3, PS), the target mRNA inhibition was 37%.

For TAAAGAGTGTTCGCAG (sugars k3 d10 k3, PS), the target mRNA inhibition is 51%.

Consider CGTGAAAACCCACTCT (sugars k3 d10 k3, PS), for which the target mRNA inhibition is -6%.

In the case of CCCCATATAAATCCCT (sugars k3 d10 k3, PS), the target mRNA inhibition was -7%.

On to TCCAATGGACATCTCT (sugars k3 d10 k3, PS), for which the target mRNA inhibition is 25%.

As for GTCCTTTTAGTAGCTT (sugars k3 d10 k3, PS), the target mRNA inhibition is 50% and 72%.

For the sequence AGCAGAAGCCCCTGCG (sugars k3 d10 k3, PS), the target mRNA inhibition was -1%.

For the sequence TGTCAATAGTACTATA (sugars k3 d10 k3, PS), the target mRNA inhibition turned out to be 18%.

For the sequence CAGTAGTAAGAATCTC (sugars k3 d10 k3, PS), the target mRNA inhibition was 54%.

For the sequence ATCACAAATACGACTG (sugars k3 d10 k3, PS), the target mRNA inhibition came to 34%.

As for CCCCCGCCTCAGTTAC (sugars k3 d10 k3, PS), the target mRNA inhibition came out at 28%.

Turning to CCAACCACTCGCTTTC (sugars k3 d10 k3, PS), the target mRNA inhibition stood at 26%.

As for TAAGATTGTAAGCATT (sugars k3 d10 k3, PS), the target mRNA inhibition was 23%.

Consider ATACCCTTCTGTTAAC (sugars k3 d10 k3, PS), for which the target mRNA inhibition came to 2%.

Turning to TTTGAAGCATACCTTA (sugars k3 d10 k3, PS), the target mRNA inhibition was -1%.

For CGCCAGCCCCCCACGG (sugars k3 d10 k3, PS), the target mRNA inhibition was -45%.

Consider CTTTCATAGAGCCTTC (sugars k3 d10 k3, PS), for which the target mRNA inhibition came to 43%.

Turning to ACGAACTGCTGCTTGC (sugars k3 d10 k3, PS), the target mRNA inhibition was 66% and 49% and 50%.

For the sequence CTTGGGAAATCTTAGA (sugars k3 d10 k3, PS), the target mRNA inhibition was -11%.

As to AGTGTACTATCCCATC (sugars k3 d10 k3, PS), the target mRNA inhibition is 78% and 91%.

For the sequence CTACATTTACAAAACG (sugars k3 d10 k3, PS), the target mRNA inhibition came to 29%.

Consider TCGCCATGGAAAGCGA (sugars k3 d10 k3, PS), for which the target mRNA inhibition is 15%.

Take GAACCGGAGCAGGAAG (sugars k3 d10 k3, PS): the target mRNA inhibition was found to be 28%.

As for CTGTTAAGACCATCCC (sugars k3 d10 k3, PS), the target mRNA inhibition was 46%.

For CAATCACAAATACGAC (sugars k3 d10 k3, PS), the target mRNA inhibition stood at 18%.

With CCCAGTTTGTCAATAG (sugars k3 d10 k3, PS), the target mRNA inhibition was 39%.

With TAAAGTGTGATAGTTC (sugars k3 d10 k3, PS), the target mRNA inhibition came out at 14%.

Turning to GAAGAGCCAAGCACTC (sugars k3 d10 k3, PS), the target mRNA inhibition was -9%.

Regarding TCAGGGTGAGGAAGTA (sugars k3 d10 k3, PS), the target mRNA inhibition stood at 50%.

Regarding CCCACCAAAGACCTCG (sugars k3 d10 k3, PS), the target mRNA inhibition is 31%.

With TAATACCCTTCTGTTA (sugars k3 d10 k3, PS), the target mRNA inhibition was found to be 19%.

Turning to AAGATCGCCTTCAAAT (sugars k3 d10 k3, PS), the target mRNA inhibition was determined as 49%.

Regarding ATAGAGCTACTTAGCT (sugars k3 d10 k3, PS), the target mRNA inhibition amounted to 19%.

On to GAACAACTCGCATCAC (sugars k3 d10 k3, PS), for which the target mRNA inhibition turned out to be 15%.

Consider TGTGTTATGCCTGGTT (sugars k3 d10 k3, PS), for which the target mRNA inhibition stood at 1%.

Take ACCTTGAGTCATTTGC (sugars k3 d10 k3, PS): the target mRNA inhibition was 66%.

CGCTTTGTTGTCTCTC (sugars k3 d10 k3, PS): the target mRNA inhibition is 87% and 99%.

With GGTTTCCTCAAGCTCC (sugars k3 d10 k3, PS), the target mRNA inhibition stood at 34%.

With ACCGGAATTCGATCAC (sugars k3 d10 k3, PS), the target mRNA inhibition was determined as 35%.

As to ACTAAGCTACTATATT (sugars k3 d10 k3, PS), the target mRNA inhibition worked out at 39%.

For CCGTTTTTCAGCTTCC (sugars k3 d10 k3, PS), the target mRNA inhibition amounted to 6%.

Regarding AGTAAGAATCTCAGGG (sugars k3 d10 k3, PS), the target mRNA inhibition amounted to 45%.

For the sequence TAGTTGTATTAATCTC (sugars k3 d10 k3, PS), the target mRNA inhibition was found to be 38%.

With AGCTGTTTAAGTCACC (sugars k3 d10 k3, PS), the target mRNA inhibition is 62% and 57%.

With TACCATAAGTAAGTTC (sugars k3 d10 k3, PS), the target mRNA inhibition turned out to be 4%.

As to ACTGTAAACCTGTGGT (sugars k3 d10 k3, PS), the target mRNA inhibition is -6%.

For the sequence TTTAAAGTAGACCAAC (sugars k3 d10 k3, PS), the target mRNA inhibition was -49%.

As to TGGGAATACTCTTCCA (sugars k3 d10 k3, PS), the target mRNA inhibition turned out to be 11%.

TACATCAAGGATGTAT (sugars k3 d10 k3, PS): the target mRNA inhibition was found to be 2%.

Consider TACCACTCTAAGATTG (sugars k3 d10 k3, PS), for which the target mRNA inhibition is 5%.

Turning to AGCACATCATGCTATT (sugars k3 d10 k3, PS), the target mRNA inhibition stood at 26%.

For the sequence ATCTGTTAACAGCTGC (sugars k3 d10 k3, PS), the target mRNA inhibition was 71% and 76%.

For the sequence AAGATGCTAGCTTGGC (sugars k3 d10 k3, PS), the target mRNA inhibition came to 24%.

As for ATTCATGAGTATAAGC (sugars k3 d10 k3, PS), the target mRNA inhibition came to 29%.

With CCCTCCCCTTTAATAA (sugars k3 d10 k3, PS), the target mRNA inhibition was -17%.

Take TGCCAAGCCAAGCCGC (sugars k3 d10 k3, PS): the target mRNA inhibition stood at 13%.

Consider CCGCTAAGATGCTAGC (sugars k3 d10 k3, PS), for which the target mRNA inhibition was 20%.

On to TCAGGCGAGCTGAGGC (sugars k3 d10 k3, PS), for which the target mRNA inhibition turned out to be 7%.

In the case of CCCCAACTGCTTGCAG (sugars k3 d10 k3, PS), the target mRNA inhibition is 13%.

With AAGCCAAGCCGCCTGC (sugars k3 d10 k3, PS), the target mRNA inhibition stood at 29%.

GACTCTGGGAAACCTG (sugars k3 d10 k3, PS): the target mRNA inhibition was 1%.
